How the values were obtained:
[1] = target: T1, dopamine (DA) D-2 receptor (Rattus norvegicus, UniProt P61169); test: TEST A: [3H]-spiperone binding, dopamine (DA) D-2 receptor, rat striatal membranes; conditions: 0.5 nM [3H] spiperone, 40 nM ketanserin, pH 7.7, 37° C., 15 min, typical values, read-out: IC50 (drug concentration which produced a 50% displacement) for the displacement of [3H] spiperone
T1 construct: Specifically, rat striatal membranes were used; from tissue; host or cells: rat striatum (membranes)
T1 sequence (P61169 whole entry): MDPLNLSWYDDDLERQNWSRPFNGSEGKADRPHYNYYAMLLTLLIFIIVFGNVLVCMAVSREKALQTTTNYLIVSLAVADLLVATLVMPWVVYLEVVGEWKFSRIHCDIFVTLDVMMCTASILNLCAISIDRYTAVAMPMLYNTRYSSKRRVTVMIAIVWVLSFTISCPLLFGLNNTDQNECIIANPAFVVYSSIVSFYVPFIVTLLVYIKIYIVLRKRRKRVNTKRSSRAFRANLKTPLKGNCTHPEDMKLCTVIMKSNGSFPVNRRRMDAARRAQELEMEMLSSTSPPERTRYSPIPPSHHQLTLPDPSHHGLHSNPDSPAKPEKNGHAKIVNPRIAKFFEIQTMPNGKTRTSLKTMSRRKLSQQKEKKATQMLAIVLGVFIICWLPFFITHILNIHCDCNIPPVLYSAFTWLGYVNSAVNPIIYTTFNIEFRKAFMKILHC
Source text: (§1) The compounds of Formula I are antagonists of dopamine D-2 receptors, and as such are predicted to be useful as antipsychotic drugs. D-2 antagonism can be shown by standard tests such as antagonism of [^3 H]-spiperone binding (Test A), and/or antagonism of apomorphine-induced climbing and apomorphine-induced disruption of swimming (Test B).
The receptor binding assay used to measure affinities of various compounds for the dopamine (DA) D-2 receptor subtype was that described by Saller and Salama in J Pharmacol Exp Ther 236, page 714, 1986.
Specifically, rat striatal membranes were used. Tissue membranes were prepared and washed once in 50 volumes of the appropriate Tris HCl buffer. For the D-2 receptor binding assay, striatal membranes were suspended to a final concentration of 8 mg/ml in 50 mM Tris HCl with 40 nM ketanserin, pH 7.7. Nonspecific binding to D-2 receptors was measured in the presence of 1.0 μM (+)-butaclamol. IC50 s (drug concentration which produced a 50% displacement) for the displacement of 0.5 nM [^3 H] spiperone were determined using at least five concentrations of each drug in triplicate. One-half milliliter of membrane suspension was incubated with the compound of interest or vehicle or nonspecific drug, ligand and appropriate Tris HCl buffer. […] The amount of drug bound to the membranes was assessed using liquid scintillation counting techniques. […]

[2] = system: apomorphine-induced climbing and apomorphine-induced disruption of swimming; test: TEST B: antagonism of apomorphine-induced climbing and apomorphine-induced disruption of swimming; type: in vivo, mouse (female Swiss-Webster mice); conditions: Mus musculus; mice, oral, 30 min before apomorphine HCl 1.25 mg/kg sc; typical values; read-out: minimum effective dose (decrease in climbing score accompanied by increase in swimming score)
Protocol: as §1
Female Swiss-Webster mice weighing approximately 20 g were deprived of food for approximately 24 h and then dosed orally with various doses of either the vehicle or test agent over a range of doses (N=20 mice per treatment group). Thirty minutes later they were dosed with apomorphine HCl at 1.25 mg/kg, sc, and placed into climbing cages. The climbing cages were 9 cm wide, 15 cm deep and 30 cm high. One wall had 27 horizontal rungs spaced 1 cm apart. Thirteen minutes after apomorphine each mouse was observed continuously for 1 min and the highest and lowest rung reached by its front paws was recorded. […] (The highest and lowest scores were 27 and 0, respectively.) Immediately after the 1-min climbing observation period each mouse was placed into a circular swimming tank for 2 min and the number of swims was counted. […] A "swim" was scored each time a mouse swam from one mark to the other. The mice were observed through overhead mirrors and the number of 180 degree swims was recorded for each mouse. […]

| IC50 [1] [nM] | Structure (SMILES) | minimal effective dose [2] [mg/kg] |
| --- | --- | --- |
| 9 | CCOCC(=O)NC1CCN(C[C@@]23C[C@@H](c4ccccc42)c2ccc(Cl)cc23)CC1 [Example 1, N-(1-[(9S,10S)-(+)-2-Chloro-9,10-dihydro-9,10-methanoanthracen-9-ylmethyl]-4-piperidyl)-2-ethoxyacetamide] | 2.5 |
| 146 | CCC(=O)NC1CCN(CC23CC(c4ccccc42)c2ccc(Cl)cc23)CC1 (stereo not shown) [Example 24, N-(1-[2-Chloro-9,10-dihydro-9,10-methanoanthracen-9-ylmethyl]-4-piperidyl)propionamide] | 40 |

Reference: US5266570A, “Piperidine derivatives, compositions and use” (Imperial Chemical Industries PLC, priority 1991, dated 1993)
